Assay: Shelf life stability program of bupropion HBr, 25° C./60% RH, 3 and 6 months, HPLC
Type: physicochemical
Details: 25° C., R.H. 60%; for Chromatographic purity B) (HPLC) 4) 2-N-(tert-Butyl)-aminopropiophenone / Chromatographic purity B) (HPLC) 5) single unknown impurity (each): LOQ 0.02%, LOD 0.002%; for Chromatographic purity A) (HPLC) 1) 3′-Chloropropiophenone / Chromatographic purity A) (HPLC) 3) 3′-Chlorobenzoic acid / Chromatographic purity A) (HPLC) 2) 3′-Chloro-2-bromopropiophenone: LOQ 0.05%; for Chromatographic purity A) (HPLC) 1) 3′-Chloropropiophenone / Chromatographic purity A) (HPLC) 3) 3′-Chlorobenzoic acid: LOD 0.01%; for Chromatographic purity A) (HPLC) 2) 3′-Chloro-2-bromopropiophenone: LOD 0.04%
Procedure: The stability of bupropion HBr was studied over a longer term under conditions meant to approximate standard storage or shelf conditions. Samples were prepared in closed containers and subjected to long-term storage at 25° C.+2° C. and 60%+5% RH in a stability chamber. The samples were analyzed by HPLC prior to being placed in the stability chamber (time 0) and after 3 months and 6 months. The amounts of the main degradation products present at time 0 were compared with the amounts present at 3 months and 6 months. As shown in Table 77-79 three different batches of bupropion HBr were tested. As in Example 10 each sample was tested under two HPLC assay conditions to identify 6 impurities or groups of impurities as described in Example 10.

## Br.CC(NC(C)(C)C)C(=O)c1cccc(Cl)c1 (stereo not drawn) [Bupropion•HBr]
Batch D00894, 12 months
  Assay (HPLC): 99.6 % on d.b.
  Chromatographic purity (HPLC: A + B) Total impurities: 0.2%
  Chromatographic purity B) (HPLC) 6) total unknown impurities: 6) 0.07%
  Description (white or almost white crystalline powder): conform
  Identification IR, HPLC: positive
  Water content (K.F.): 0.05%
  Chromatographic purity B) (HPLC) 4) 2-N-(tert-Butyl)-aminopropiophenone: 4) 0.05%
  Chromatographic purity B) (HPLC) 5) single unknown impurity (each): 5) 0.05%
  Chromatographic purity A) (HPLC) 1) 3′-Chloropropiophenone: 1) n.d.
  Chromatographic purity A) (HPLC) 3) 3′-Chlorobenzoic acid: 3) 0.05%
  Chromatographic purity A) (HPLC) 2) 3′-Chloro-2-bromopropiophenone: 2) n.d.
Batch D00894, time 0
  Assay (HPLC): 99.6 % on d.b.
  Chromatographic purity (HPLC: A + B) Total impurities: 0.1%
  Chromatographic purity B) (HPLC) 6) total unknown impurities: 6) 0.04%
  Description (white or almost white crystalline powder): conform
  Identification IR, HPLC: positive
  Water content (K.F.): 0.05%
  Chromatographic purity B) (HPLC) 4) 2-N-(tert-Butyl)-aminopropiophenone: 4) 0.04%
  Chromatographic purity B) (HPLC) 5) single unknown impurity (each): 5) 0.04%
  Chromatographic purity A) (HPLC) 1) 3′-Chloropropiophenone: 1) n.d.
  Chromatographic purity A) (HPLC) 3) 3′-Chlorobenzoic acid: 3) n.q.
  Chromatographic purity A) (HPLC) 2) 3′-Chloro-2-bromopropiophenone: 2) n.d.
Batch D00895, 3 months
  Assay (HPLC): 99.5 % on d.b.
  Chromatographic purity (HPLC: A + B) Total impurities: 0.1%
  Chromatographic purity B) (HPLC) 6) total unknown impurities: 6) 0.05%
  Description (white or almost white crystalline powder): conform
  Identification IR, HPLC: positive
  Water content (K.F.): 0.04%
  Chromatographic purity B) (HPLC) 4) 2-N-(tert-Butyl)-aminopropiophenone: 4) 0.03%
  Chromatographic purity B) (HPLC) 5) single unknown impurity (each): 5) 0.04%
  Chromatographic purity A) (HPLC) 1) 3′-Chloropropiophenone: 1) n.q.
  Chromatographic purity A) (HPLC) 3) 3′-Chlorobenzoic acid: 3) n.q.
  Chromatographic purity A) (HPLC) 2) 3′-Chloro-2-bromopropiophenone: 2) n.d.
Batch D00895, 6 months
  Assay (HPLC): 100.1 % on d.b.
  Chromatographic purity (HPLC: A + B) Total impurities: 0.1%
  Chromatographic purity B) (HPLC) 6) total unknown impurities: 6) 0.02%
  Description (white or almost white crystalline powder): conform
  Identification IR, HPLC: positive
  Water content (K.F.): 0.05%
  Chromatographic purity B) (HPLC) 4) 2-N-(tert-Butyl)-aminopropiophenone: 4) 0.05%
  Chromatographic purity B) (HPLC) 5) single unknown impurity (each): 5) n.q.
  Chromatographic purity A) (HPLC) 1) 3′-Chloropropiophenone: 1) 0.05%
  Chromatographic purity A) (HPLC) 3) 3′-Chlorobenzoic acid: 3) n.q.
  Chromatographic purity A) (HPLC) 2) 3′-Chloro-2-bromopropiophenone: 2) n.d.
Batch D00895, 9 months
  Assay (HPLC): 99.4 % on d.b.
  Chromatographic purity (HPLC: A + B) Total impurities: n.q.
  Chromatographic purity B) (HPLC) 6) total unknown impurities: 6) n.q.
  Description (white or almost white crystalline powder): conform
  Identification IR, HPLC: positive
  Water content (K.F.): 0.05%
  Chromatographic purity B) (HPLC) 4) 2-N-(tert-Butyl)-aminopropiophenone: 4) n.d.
  Chromatographic purity B) (HPLC) 5) single unknown impurity (each): 5) n.q.
  Chromatographic purity A) (HPLC) 1) 3′-Chloropropiophenone: 1) n.q.
  Chromatographic purity A) (HPLC) 3) 3′-Chlorobenzoic acid: 3) n.q.
  Chromatographic purity A) (HPLC) 2) 3′-Chloro-2-bromopropiophenone: 2) n.d.
Batch D00895, 12 months
  Assay (HPLC): 99.4 % on d.b.
  Chromatographic purity (HPLC: A + B) Total impurities: 0.2%
  Chromatographic purity B) (HPLC) 6) total unknown impurities: 6) 0.07%
  Description (white or almost white crystalline powder): conform
  Identification IR, HPLC: positive
  Water content (K.F.): 0.04%
  Chromatographic purity B) (HPLC) 4) 2-N-(tert-Butyl)-aminopropiophenone: 4) 0.05%
  Chromatographic purity B) (HPLC) 5) single unknown impurity (each): 5) 0.07%
  Chromatographic purity A) (HPLC) 1) 3′-Chloropropiophenone: 1) n.d.
  Chromatographic purity A) (HPLC) 3) 3′-Chlorobenzoic acid: 3) 0.05%
  Chromatographic purity A) (HPLC) 2) 3′-Chloro-2-bromopropiophenone: 2) n.d.
Batch D00895, time 0
  Assay (HPLC): 99.2 % on d.b.
  Chromatographic purity (HPLC: A + B) Total impurities: 0.1%
  Chromatographic purity B) (HPLC) 6) total unknown impurities: 6) 0.04%
  Description (white or almost white crystalline powder): conform
  Identification IR, HPLC: positive
  Water content (K.F.): 0.04%
  Chromatographic purity B) (HPLC) 4) 2-N-(tert-Butyl)-aminopropiophenone: 4) 0.04%
  Chromatographic purity B) (HPLC) 5) single unknown impurity (each): 5) 0.04%
  Chromatographic purity A) (HPLC) 1) 3′-Chloropropiophenone: 1) n.d.
  Chromatographic purity A) (HPLC) 3) 3′-Chlorobenzoic acid: 3) n.q.
  Chromatographic purity A) (HPLC) 2) 3′-Chloro-2-bromopropiophenone: 2) n.d.
Batch D00896, 3 months
  Assay (HPLC): 99.4 % on d.b.
  Chromatographic purity (HPLC: A + B) Total impurities: 0.1%
  Chromatographic purity B) (HPLC) 6) total unknown impurities: 6) 0.05%
  Description (white or almost white crystalline powder): conform
  Identification IR, HPLC: positive
  Water content (K.F.): 0.04%
  Chromatographic purity B) (HPLC) 4) 2-N-(tert-Butyl)-aminopropiophenone: 4) 0.03%
  Chromatographic purity B) (HPLC) 5) single unknown impurity (each): 5) 0.04%
  Chromatographic purity A) (HPLC) 1) 3′-Chloropropiophenone: 1) n.q.
  Chromatographic purity A) (HPLC) 3) 3′-Chlorobenzoic acid: 3) n.q.
  Chromatographic purity A) (HPLC) 2) 3′-Chloro-2-bromopropiophenone: 2) n.d.
Batch D00896, 6 months
  Assay (HPLC): 100.5 % on d.b.
  Chromatographic purity (HPLC: A + B) Total impurities: 0.1%
  Chromatographic purity B) (HPLC) 6) total unknown impurities: 6) n.q.
  Description (white or almost white crystalline powder): conform
  Identification IR, HPLC: positive
  Water content (K.F.): 0.04%
  Chromatographic purity B) (HPLC) 4) 2-N-(tert-Butyl)-aminopropiophenone: 4) 0.04%
  Chromatographic purity B) (HPLC) 5) single unknown impurity (each): 5) n.q.
  Chromatographic purity A) (HPLC) 1) 3′-Chloropropiophenone: 1) 0.05%
  Chromatographic purity A) (HPLC) 3) 3′-Chlorobenzoic acid: 3) n.q.
  Chromatographic purity A) (HPLC) 2) 3′-Chloro-2-bromopropiophenone: 2) n.d.
Batch D00896, 9 months
  Assay (HPLC): 99.4 % on d.b.
  Chromatographic purity (HPLC: A + B) Total impurities: n.q.
  Chromatographic purity B) (HPLC) 6) total unknown impurities: 6) n.q.
  Description (white or almost white crystalline powder): conform
  Identification IR, HPLC: positive
  Water content (K.F.): 0.04%
  Chromatographic purity B) (HPLC) 4) 2-N-(tert-Butyl)-aminopropiophenone: 4) n.d.
  Chromatographic purity B) (HPLC) 5) single unknown impurity (each): 5) n.q.
  Chromatographic purity A) (HPLC) 1) 3′-Chloropropiophenone: 1) n.q.
  Chromatographic purity A) (HPLC) 3) 3′-Chlorobenzoic acid: 3) n.q.
  Chromatographic purity A) (HPLC) 2) 3′-Chloro-2-bromopropiophenone: 2) n.d.
Batch D00896, 12 months
  Assay (HPLC): 100.3 % on d.b.
  Chromatographic purity (HPLC: A + B) Total impurities: 0.1%
  Chromatographic purity B) (HPLC) 6) total unknown impurities: 6) 0.07%
  Description (white or almost white crystalline powder): conform
  Identification IR, HPLC: positive
  Water content (K.F.): 0.03%
  Chromatographic purity B) (HPLC) 4) 2-N-(tert-Butyl)-aminopropiophenone: 4) 0.05%
  Chromatographic purity B) (HPLC) 5) single unknown impurity (each): 5) 0.07%
  Chromatographic purity A) (HPLC) 1) 3′-Chloropropiophenone: 1) n.d.
  Chromatographic purity A) (HPLC) 3) 3′-Chlorobenzoic acid: 3) n.q.
  Chromatographic purity A) (HPLC) 2) 3′-Chloro-2-bromopropiophenone: 2) n.d.
Batch D00896, time 0
  Assay (HPLC): 99.3 % on d.b.
  Chromatographic purity (HPLC: A + B) Total impurities: 0.1%
  Chromatographic purity B) (HPLC) 6) total unknown impurities: 6) 0.05%
  Description (white or almost white crystalline powder): conform
  Identification IR, HPLC: positive
  Water content (K.F.): 0.06%
  Chromatographic purity B) (HPLC) 4) 2-N-(tert-Butyl)-aminopropiophenone: 4) 0.04%
  Chromatographic purity B) (HPLC) 5) single unknown impurity (each): 5) 0.05%
  Chromatographic purity A) (HPLC) 1) 3′-Chloropropiophenone: 1) n.d.
  Chromatographic purity A) (HPLC) 3) 3′-Chlorobenzoic acid: 3) n.q.
  Chromatographic purity A) (HPLC) 2) 3′-Chloro-2-bromopropiophenone: 2) n.d.

Reference: patent publication US7884136B2, “Modified-release formulations of a bupropion salt” (Biovail Laboratories International S.R.L., priority 2005, dated 2011)
